The text below walks through data of patent US5783689A, “Antibacterial and antifungal nucleosides” (University of Notre Dame, priority 1996, dated 1998).

Values after ≈ are worked out from the molar mass of the structure shown. Read-outs that look alike come from different tables or passages of the source. Where a SMILES comes first, the peptide text is derived from it. [ ]: non-standard residue; d: D form. The star is where a group is joined. X1 = O=c1[nH]c(=O)n([C@@H]2O[C@H](CO*)[C@@H](O)[C@H]2O)cc1F; Orn(N5-OH,N5-Ac) = CC(=O)N(O)CCC[C@H](N)C(=O)O

Common to all, as to format: cell-based
In one test the test system is E. Coli EC14. Briefly: MIC by agar dilution method. The following applies: Escherichia coli, read-out: Minimum Inhibitory Concentration. From the text: (§1) The following Table 3 lists the minimum inhibitory concentrations obtained by the agar dilution method against Gram-positive and Gram-negative organisms with 5'-O-(valinyl)-5-fluorouridine and comparators ampicillin and 5-FC.
On the technique in general: In agar dilution the substance is mixed into plates at graded concentrations.

The subject of the next test is E. Coli TEM. Briefly: MIC by agar dilution method. The following applies: Escherichia coli, read-out: Minimum Inhibitory Concentration.
Excerpt: as §1

Test [1] has as its system Enterobacter aerogenes C32. Kind of test: MIC by agar dilution method. The following applies: Klebsiella aerogenes, read-out: Minimum Inhibitory Concentration.
Excerpt: as §1

Test [2] relates to Enterobacter aerogenes EB17. Briefly: MIC by agar dilution method. The following applies: Klebsiella aerogenes, read-out: Minimum Inhibitory Concentration.
Excerpt: as §1

In another test the test system is Enterobacter cloacae EB5. Briefly: MIC by agar dilution method. The following applies: read-out: Minimum Inhibitory Concentration.
Excerpt: as §1

The next test concerns Enterococcus D 2041. Briefly: MIC by agar dilution method. The following applies: D2041, read-out: Minimum Inhibitory Concentration.
Excerpt: as §1

Another test has as its system Enterococcus D X66. Kind of test: MIC by agar dilution method.
Excerpt: as §1

A further test has as its system Klebsiella X26. Briefly: MIC by agar dilution method. The note with it: read-out: Minimum Inhibitory Concentration.
Excerpt: as §1

A further test has as its system Morganella morganii PR15. Kind of test: MIC by agar dilution method. The following applies: read-out: Minimum Inhibitory Concentration.
Excerpt: as §1

The subject of the next test is Proteus rett. C24. Briefly: MIC by agar dilution method. The note with it: read-out: Minimum Inhibitory Concentration.
Excerpt: as §1

In the next test the test system is Proteus stu PR33. Briefly: MIC by agar dilution method. The note with it: read-out: Minimum Inhibitory Concentration.
Excerpt: as §1

Another test has as its system Pseudomonas PS19. Briefly: MIC by agar dilution method.
Excerpt: as §1

Another test has as its system Salmonella 1335. Kind of test: MIC by agar dilution method. The following applies: read-out: Minimum Inhibitory Concentration.
Excerpt: as §1

The next test relates to Salmonella X514. Kind of test: MIC by agar dilution method. The following applies: read-out: Minimum Inhibitory Concentration.
Excerpt: as §1

Another test concerns Serratia SE3. Briefly: MIC by agar dilution method. The following applies: read-out: Minimum Inhibitory Concentration.
Excerpt: as §1

A further test concerns Serratia X99. Kind of test: MIC by agar dilution method. The note with it: read-out: Minimum Inhibitory Concentration.
Excerpt: as §1

For the next test, the system named is Shigella sonnei N9. Briefly: MIC by agar dilution method. The following applies: N9, read-out: Minimum Inhibitory Concentration.
Excerpt: as §1

The test system of test [3] is Staphylococcus aureus S13E. Kind of test: MIC by agar dilution method. The following applies: read-out: Minimum Inhibitory Concentration.
Excerpt: as §1

Test [4] deals with Staphylococcus aureus V 41. Kind of test: MIC by agar dilution method. The note with it: V41, read-out: Minimum Inhibitory Concentration.
Excerpt: as §1

Test [5] concerns Staphylococcus aureus X 1.1. Briefly: MIC by agar dilution method. The following applies: X1.1, read-out: Minimum Inhibitory Concentration.
Excerpt: as §1

Test [6] concerns Staphylococcus aureus X 400. Briefly: MIC by agar dilution method.
Excerpt: as §1

Test [7] deals with Staphylococcus epidermis 222. Briefly: MIC by agar dilution method. The note with it: read-out: Minimum Inhibitory Concentration.
Excerpt: as §1

The subject of test [8] is Staphylococcus epidermis 70. Briefly: MIC by agar dilution method. The following applies: read-out: Minimum Inhibitory Concentration.
Excerpt: as §1

The test system of a further test is Candida albicans. Kind of test: in vitro test against Candida albicans, zone of inhibition, Lee's medium. The following applies: 37° C. From the text: The test compound of Table 3,5'-O-(valinyl)-5-fluorouridine, was coupled to the triornithyl peptide represented by the formula 2 wherein p is 3 by following the reaction Scheme 1 above and substituting valine for glycine to provide the tetrapeptide of the invention. […] Lee, K. L.; Buckley, H. R.; Campbell, C. C., Saubouraudia, 1975, 13, 148. The tetrapeptide gave a 35 mm diameter zone of inhibition at a concentration of the compound of 25 nmol. while at a concentration of 5 nmol. the zone of inhibition was 26 mm.

A further test deals with Streptococcus pn PARK. Kind of test: MIC by agar dilution method. The following applies: read-out: Minimum Inhibitory Concentration.
Excerpt: as §1

The test system of the next test is Streptococcus A C203. Kind of test: MIC by agar dilution method. More on the design: key: NG: no growth.
Excerpt: as §1

Test [9] concerns Gram-positive bacteria including the methicillin resistant staphylococci. Kind of test: in vitro growth inhibition of Gram-positive bacteria including methicillin resistant staphylococci.
Excerpt: as §1

The test system of test [10] is Gram-negative microorganisms. Briefly: activity against Gram-negative microorganisms. The following applies: compared with Gram-positive bacteria.
Excerpt: as §1

Setting [11] is: Pseudomonas PS19, agar dilution, read-out: Minimum Inhibitory Concentration.
[12] abbreviates: DX66, Enterococcus D X66, agar dilution, read-out: Minimum Inhibitory Concentration.
[13] abbreviates: X400, Staphylococcus aureus X 400, agar dilution, read-out: Minimum Inhibitory Concentration.

In the case of `CC1(C)S[C@@H]2[C@H](NC(=O)[C@H](N)c3ccccc3)C(=O)N2[C@H]1C(=O)O` [Ampicillin], the MIC in the test with E. Coli EC14 (E. Coli EC14, agar dilution) stood at 0.06 µg/mL (≈ 0.172 µM); in the test with E. Coli TEM it was 0.03 µg/mL (≈ 0.0859 µM); in test [1] it was 0.5 µg/mL (≈ 1.43 µM); in [2] it was 0.06 µg/mL (≈ 0.172 µM); in the test on Enterobacter cloacae EB5, 0.25 µg/mL (≈ 0.715 µM); with Enterococcus D 2041 it was 1 µg/mL (≈ 2.86 µM). In addition, the MIC stood at 128 µg/mL (≈ 366 µM) in the test on Enterococcus D X66 (Enterococcus, DX66, read-out: Minimum Inhibitory Concentration); 0.008 µg/mL (≈ 0.0229 µM) in the test with Klebsiella X26; 1 µg/mL (≈ 2.86 µM) in the test with Morganella morganii PR15; 0.06 µg/mL (≈ 0.172 µM) with Proteus rett. C24; 0.06 µg/mL (≈ 0.172 µM) with Proteus stu PR33; 32 µg/mL (≈ 91.6 µM) in the test on Pseudomonas PS19 (setting [11]). Further, the MIC stood at 0.125 µg/mL (≈ 0.358 µM) with Salmonella 1335; 0.06 µg/mL (≈ 0.172 µM) with Salmonella X514; 0.5 µg/mL (≈ 1.43 µM) in the test with Serratia SE3; 0.25 µg/mL (≈ 0.715 µM) in the test on Serratia X99; 0.6 µg/mL (≈ 1.72 µM) in the test on Shigella sonnei N9; 128 µg/mL (≈ 366 µM) in [3]. Moreover, the MIC in [4] is 4 µg/mL (≈ 11.4 µM); in test [5], 2 µg/mL (≈ 5.72 µM); in test [6] (Staphylococcus aureus, X400, read-out: Minimum Inhibitory Concentration), 128 µg/mL (≈ 366 µM); in test [7], 2 µg/mL (≈ 5.72 µM); in test [8], 8 µg/mL (≈ 22.9 µM).
In the case of `CC(=O)N(O)CCC[C@H](NC(=O)[C@H](CCCN(O)C(C)=O)NC(=O)[C@@H](N)CCCN(O)C(C)=O)C(=O)N[C@H](C(=O)OC[C@H]1O[C@@H](n2cc(F)c(=O)[nH]c2=O)[C@H](O)[C@@H]1O)C(C)C` [tetrapeptide] (H-[Orn(N5-OH,N5-Ac)][Orn(N5-OH,N5-Ac)][Orn(N5-OH,N5-Ac)]V-X1), the “diameter zone of inhibition” value with Candida albicans (5 nmol) was 26 mm; in the test on Candida albicans (25 nmol) it was 35 mm. For the same compound, in the test on Candida albicans (in vitro), the “activity against Candida albicans (in words)” value is reported as “exhibited activity against Candida albicans”.
In the case of `CC(C)[C@H](N)C(=O)OC[C@H]1O[C@@H](n2cc(F)c(=O)[nH]c2=O)[C@H](O)[C@@H]1O` [Test Compd, 5'-O-(L-valinyl)-5-fluorouridine], the MIC in the test on E. Coli EC14 (E. Coli EC14, agar dilution) amounted to 128 µg/mL (≈ 354 µM); with E. Coli TEM, 16 µg/mL (≈ 44.3 µM); in test [1] it was 64 µg/mL (≈ 177 µM); in test [2] it was 64 µg/mL (≈ 177 µM); with Enterobacter cloacae EB5, 32 µg/mL (≈ 88.6 µM); in the test with Enterococcus D 2041, 2 µg/mL (≈ 5.54 µM). The MIC with Enterococcus D X66 (setting [12]) is 32 µg/mL (≈ 88.6 µM); with Klebsiella X26 it was 32 µg/mL (≈ 88.6 µM); with Morganella morganii PR15, 8 µg/mL (≈ 22.1 µM); in the test on Proteus rett. C24, 16 µg/mL (≈ 44.3 µM); with Proteus stu PR33 it was 32 µg/mL (≈ 88.6 µM); in the test on Pseudomonas PS19 (setting [11]), 128 µg/mL (≈ 354 µM). Besides, the MIC came out at 32 µg/mL (≈ 88.6 µM) in the test on Salmonella 1335; 32 µg/mL (≈ 88.6 µM) with Salmonella X514; 16 µg/mL (≈ 44.3 µM) in the test with Serratia SE3; 16 µg/mL (≈ 44.3 µM) in the test on Serratia X99; 64 µg/mL (≈ 177 µM) in the test on Shigella sonnei N9; 0.125 µg/mL (≈ 0.346 µM) in [3]. In addition, the MIC in test [4] is 0.25 µg/mL (≈ 0.692 µM); in test [5], 0.5 µg/mL (≈ 1.38 µM); in test [6] (setting [13]) it was 0.25 µg/mL (≈ 0.692 µM); in test [7], 1 µg/mL (≈ 2.77 µM); in [8], 0.03 µg/mL (≈ 0.083 µM); with Streptococcus pn PARK, 128 µg/mL (≈ 354 µM). Besides, the “Minimum Inhibitory Concentration” value with Streptococcus A C203 is on record as “NG”. The “growth inhibition of Gram-positive bacteria / methicillin-resistant staphylococcus (in words)” value in test [9] is “inhibited the in vitro growth of Gram-positive bacteria including the methicillin resistant staphylococci”; in test [9] (listed as 5'-O-(valinyl)-5-fluorouridine) it was “inhibits the growth of methicillin-resistant staphylococcus”. In test [10], the “activity against Gram-negative microorganisms (in words)” value is given as “also active against Gram-negative microorganisms but to a lesser degree”.
As to `Nc1nc(=O)n([C@@H]2O[C@H](CO)[C@@H](O)[C@H]2O)cc1F` [Example 5-FC, 5-fluorocytidine], the MIC was above 128 µg/mL in the test with E. Coli EC14; 4 µg/mL (≈ 15.3 µM) in the test with Enterococcus D 2041; 0.25 µg/mL (≈ 0.957 µM) with Enterococcus D X66 (setting [12]); above 128 µg/mL in the test with Pseudomonas PS19 (Pseudomonas, PS19, read-out: Minimum Inhibitory Concentration); 2 µg/mL (≈ 7.66 µM) in [3]; 8 µg/mL (≈ 30.6 µM) in [4]. Besides, the MIC in [5] is 8 µg/mL (≈ 30.6 µM); in test [6] (setting [13]), 8 µg/mL (≈ 30.6 µM); in test [7], 16 µg/mL (≈ 61.3 µM); in test [8], 16 µg/mL (≈ 61.3 µM).
